The source of these data is PMC10759609, “A novel PDPN antagonist peptide CY12-RP2 inhibits melanoma growth via Wnt/β-catenin and modulates the immune cells” (Journal of Experimental & Clinical Cancer Research : CR, 2024).

Peptide text beside a SMILES is read from it.

The subject of series [1] is A375 cell spheroids (caspase3). Description: Caspase3 immunofluorescence in 3D spheroids. Type of series: cell-based. The settings on record: 3D melanoma cell spheroids (A375 in Fig. S3G legend), 72 h. How it is done: Prepared melanoma cells spheroids were plated in 48-well plates. Following incubation for 3 days, the spheroids were exposed to different concentrations (0, 50, 100 and 200 μM) of CY12-RP2, and changes in spheroid diameter were detected after 5 days of treatment. Additionally, melanoma cell spheroids were treated with various concentrations of CY12-RP2 as described previously, and after 72 h, the spheroids were stained for immunofluorescence with caspase 3 primary antibody. The specific experimental procedures refer to the following immunofluorescence analysis. Additionally, we co-cultured peptide-stimulated PBMC with spheroids to determine the tumor-killing ability of activated PBMC.
Transwell assays were performed to quantify the modulatory effects of SKL2001 and IWR1 (C). Statistical analysis was performed to evaluate the invasion of cells (D). The power field scale bar, 100 μm. (E) Western blot assays were also performed on EMT-related proteins to identify the effects of SKL2001 and IWR1. […]
(A) Cell viability of melanoma cell lines (A375, A875) treated with 6 peptides except CY12-RP2 at various concentrations for 48 h. […] (C) SPR assay was performed to quantify […]
melanoma cell lines (A375, A875). […] (G) Immunofluorescence staining was performed to measure the caspase3 fluorescence intensity of A375 cell spheroids after treating with CY12-RP2. […]

In series [2] the test system is A875 cells. Description: Colony formation, A875. Type of series: cell-based.
Series [3] in a line: In vivo biodistribution (His-ELISA). The settings on record: His-CY12-RP2, 25 and 100 mg/kg, tail vein. On the set-up: species or system BALB/c nude mice. The procedure: In vivo biodistribution assay was conducted in BALB/c nude mice with melanoma tumor. Here we prepared 15 female BALB/c mice with subcutaneous melanoma tumor, and divided into three groups with each group of five. Mice were treated with His-CY12-RP2 by tail vein administration at various doses (25 mg/kg and 100 mg/kg). We collected at least 50 μL orbital blood samples by using capillary blood vessels at 6 h, 12 h, 24 h, 36 h, and 48 h, respectively. Five mice were used for the study of in vivo biodistribution of peptide. The organs including heart, liver, spleen, lung and kidney were collected after BALB/c nude mice were sacrificed at 48 h. The biodistribution of CY12-RP2 in blood and organs were measured using an ELISA kit (Shenzhen Ziker Biological Technology, Shenzhen, China) following the kit’s instructions.
Fig. S4: The inhibition of cells metastasis and invasion by CY12-RP2 can be […]
(A, B) The inhibition of CY12-RP2 on the migration capacity of melanoma cell lines was reversed by SKL2001 (A). Statistical analysis was performed to determine the migrated distance (B). The power field scale bar, 100 μm. (C, D) Effect of CY12-RP2 on the invasive ability of melanoma cell lines were reversed by SKL2001 (C).
Statistical analysis was performed to count the invaded cells (D). The power field scale bar, 100 μm. (E) Western blot assay was also performed to detect the proteins related to EMT and Wnt/β-catenin signaling pathway, including N-cadherin, Vimentin, snail, Dvl2, Phospho-β-catenin-S675, β-catenin, Phospho-GSK3β-Ser9 and GSK3β by CY12-RP2 with or without SKL2001 (50 μM). Data are presented as mean ± SD. *p < […]
(A) TUNEL analysis of apoptosis was conducted on orthotopic xenografts tumor sections using fluorescence staining. […] (B) Fluorescence staining of Ki67 was carried out on orthotopic xenograft tumor sections.
The power field scale bar, 100 μm. (C) Serum His-CY12-RP2 levels of the orthotopic xenografts mice treated by various dosage of CY12-RP2 were measured by His-ELISA kit. […]
kit. (E) Serum ALT, AST, TG, and γ-GT levels of the orthotopic xenografts model were measured by ELISA. […]
On the technique in general: In an ELISA, binding on a coated surface is turned into a signal by an enzyme label.

The subject of series [4] is immune cells in spleen and lung. In words: Flow cytometry of immune cells, spleen and lung, lung metastasis model. Type of series: in vivo, BALB/c mice. The note with it: lungs and spleens. How it is done:
In this study, cell apoptosis was analyzed by flow cytometry using a PI/FITC-Annexin V Apoptosis Detection Kit (4A Biotech, Beijing, China). Briefly, melanoma cells were collected and washed with pre-chilled PBS, then resuspended with Annexin V staining buffer. Afterward, fluorescein isothiocyanate (FITC)-Annexin V and PI were stained for 5 min at RT, and then immediately detected using a Beckman flow cytometer. To investigate immune cell infiltration of the lung and spleen in the pulmonary metastasis mouse model, the surface and nuclear antigen staining were performed following the experimental procedure. Fluorescence-labeled mAb against CD3, CD25, CD49b, GranzymeB, CD11b, CD86, and CD206 were purchased from BioLegend (BioLegend, San Diego, CA), and CD4, CD8, and Foxp3 from Tonbo. Surface markers, including CD3, CD4, CD8, CD25, CD49b, GranzymeB, CD11b, CD86 and CD206, were firstly stained, then fixed, permeabilized, and stained for the intranuclear marker Foxp3, respectively. Finally, the samples were measured using flow cytometry.
For pulmonary metastasis assays, 6- to 8-week-old female BALB/c mice were administered with 5 × 10^5 B16F10-Luc cells via tail vein to establish an experimental pulmonary metastasis model of melanoma. CY12-RP2 was administered to the mice intravenously at high and low doses (25 mg/kg and 100 mg/kg) every two days, and the mice were sacrificed after 15 days of treatment. Pulmonary metastases were evaluated using bioluminescence imaging on the 2nd, 5th, 10th, 15th and 20th day after B16F10-Luc cells injection. Subsequently, the BALB/c mice were sacrificed, and the organs including the heart, liver, spleen, lung, and kidney were collected and imaged for evaluation of micrometastases. The xenografts and organs were kept in a 4% paraformaldehyde solution for subsequent histological assays.
A general note: Flow cytometry measures light scatter and fluorescence of single cells or particles in a stream.

With `CC(C)C[C@H](NC(=O)[C@H](Cc1ccc(O)cc1)NC(=O)[C@@H](N)[C@@H](C)O)C(=O)N[C@@H](CS)C(=O)N[C@H](C(=O)N[C@@H](C)C(=O)N[C@@H](CS)C(=O)N[C@@H](CC(=O)O)C(=O)N[C@@H](Cc1ccc(O)cc1)C(=O)N[C@H](C(=O)N[C@@H](Cc1c[nH]cn1)C(=O)N[C@@H](Cc1c[nH]cn1)C(=O)O)[C@@H](C)O)[C@@H](C)O` [CY12-RP2] (H-TYLCTACDYTHH-OH; N-terminus and C-terminus assumed), in series [1], the “level of Caspase3” value is given as “significantly increased”. In series [2], the colony formation result is on record as “only having inhibitory effects on A875 cells at high concentrations”. The “serum level after peak” value in series [3] (serum, 6-48 h) is “moderately decreased progressively with time”. Besides, the “time of peak serum level” value in series [3] (serum, sampled 6, 12, 24, 36, 48 h) worked out at 6 h. In addition, the organ distribution entry in series [3] (tumor vs heart, liver, spleen, lung, kidney at 48 h) is “significant ability to target tumors compared to other organs”. Also, in series [4], the “CD3 + CD4 + T cells ratio to total T cells” value is “significantly increased”, the “CD3 + CD8 + T cells ratio to total T cells” value is listed as “significantly increased”, the “CD4 + CD25 + Foxp3 + Treg cells” value is given as “significantly diminished” and the “CD11b + CD86 + M1-like macrophages proportion” value is recorded as “significantly increased”. For the same compound, in series [4], the “CD11b + CD206 + M2-like macrophages proportion” value is “decreased” and the “CD49b + Granzyme B + NK cells proportion” value is recorded as “significantly increased”.
